# Assays:
# MDCK-WT cells = assay: Non-radioactive uptake study of B-10HD-ACV on MDCK-WT cells; format: in vitro ADME, dog; conditions: 200 μM; for Average uptake: DPBS pH 5.4, 90 minutes; for Relative fold uptake: relative to acyclovir
# Protocol: Non-radioactive uptake studies were performed for the above prodrugs on MDCK-WT cells after growing them for 7 days. The medium was aspirated and the cells were washed 3 times after an interval of 5 minutes each with DPBS pH 5.4. […] Uptake was carried out for 90 minutes. Uptake was terminated using ice cold DPBS pH 5.4. The cells were then washed 2 times using distilled deionized water and lysed overnight at −80° C. with 500 uL of distilled deionized water in each well. The samples were analyzed using LC-MS/MS.
# Caco-2 cells monolayer = assay: Non-radioactive cellular uptake study, Caco-2; conditions: 90 minutes (FIG. 4)
# [1] = tested on: MDCK-MDR1 cell monolayers
# Protocol: The medium was changed everyday after reaching confluence.
# The experiments were carried out for 90 minutes.
# MDCK-MDR1 cell monolayer = assay: Non-radioactive cellular uptake study, MDCK-MDR1; conditions: pH 5.5, 90 minutes (FIG. 2)
SMILES,Average uptake (MDCK-WT cells) [pmoles/mg protein/min],Relative fold uptake (MDCK-WT cells),increase of uptake compared to ACV (MDCK-MDR1 cell monolayer),increase of uptake compared to ACV (Caco-2 cells monolayer) [times],other results
"Nc1nc2c(ncn2COCCO)c(=O)[nH]1 [ACV, 9-(2-hydroxyethoxymethyl)guanine, reference compound]",4.56,1,–,–,–
"CCCCCCC(CCCCCCCCCCC(=O)OCCOCn1cnc2c(=O)[nH]c(N)nc21)OC(=O)CCCC[C@@H]1SC[C@@H]2NC(=O)N[C@@H]21 (stereo partly drawn) [B-12HS-ACV, Biotin-12-Hydroxystearicacid-ACV]",–,–,–,8.3,–
"Nc1nc2c(ncn2COCCOC(=O)CCCC[C@@H]2SC[C@@H]3NC(=O)N[C@@H]32)c(=O)[nH]1 [B-ACV, Biotin-ACV]",–,–,–,–,uptake in the presence of biotin versus in its absence [1]: significantly lesser
"CCCCCC[C@@H](O)C/C=C\CCCCCCCC(=O)OCCOCn1cnc2c(=O)[nH]c(N)nc21 [R-ACV, Ricinoleicacid-ACV]",–,–,four,1.4,–

# More lines, main results first:
Average uptake (MDCK-WT cells) [pmoles/mg protein/min],Relative fold uptake (MDCK-WT cells),increase of uptake compared to ACV (MDCK-MDR1 cell monolayer),SMILES,increase of uptake compared to ACV (Caco-2 cells monolayer) [times],other results
199.74,43.73,–,"Nc1nc2c(ncn2COCCOC(=O)CCCCCCCCCO)c(=O)[nH]1 [10HD-ACV, 2-((2-amino-6-oxo-1,6-dihydropurin-9-yl)methoxy)ethyl 10-hydroxy decanoate]",–,–
–,–,9.5 times,"CCCCCC[C@H](C/C=C\CCCCCCCC(=O)OCCOCn1cnc2c(=O)[nH]c(N)nc21)OC(=O)CCCC[C@@H]1SC[C@@H]2NC(=O)N[C@@H]21 [B-R-ACV, Biotin-Ricinoleic acid-Acyclovir]",–,–
